Experimental data: ChEMBL document CHEMBL1201862, “PubChem BioAssay data set” (2004)
The source made the active and inactive calls.

Legend:
Hexokinase-1 = target: T1, Hexokinase-1 (Homo sapiens, UniProt P19367); test: HK1 enzyme activation by HKDC1 hits – biochemical, selectivity assay for HKDC1 activator project, dose response (AID 504762); type: functional
T1 sequence (P19367 whole entry): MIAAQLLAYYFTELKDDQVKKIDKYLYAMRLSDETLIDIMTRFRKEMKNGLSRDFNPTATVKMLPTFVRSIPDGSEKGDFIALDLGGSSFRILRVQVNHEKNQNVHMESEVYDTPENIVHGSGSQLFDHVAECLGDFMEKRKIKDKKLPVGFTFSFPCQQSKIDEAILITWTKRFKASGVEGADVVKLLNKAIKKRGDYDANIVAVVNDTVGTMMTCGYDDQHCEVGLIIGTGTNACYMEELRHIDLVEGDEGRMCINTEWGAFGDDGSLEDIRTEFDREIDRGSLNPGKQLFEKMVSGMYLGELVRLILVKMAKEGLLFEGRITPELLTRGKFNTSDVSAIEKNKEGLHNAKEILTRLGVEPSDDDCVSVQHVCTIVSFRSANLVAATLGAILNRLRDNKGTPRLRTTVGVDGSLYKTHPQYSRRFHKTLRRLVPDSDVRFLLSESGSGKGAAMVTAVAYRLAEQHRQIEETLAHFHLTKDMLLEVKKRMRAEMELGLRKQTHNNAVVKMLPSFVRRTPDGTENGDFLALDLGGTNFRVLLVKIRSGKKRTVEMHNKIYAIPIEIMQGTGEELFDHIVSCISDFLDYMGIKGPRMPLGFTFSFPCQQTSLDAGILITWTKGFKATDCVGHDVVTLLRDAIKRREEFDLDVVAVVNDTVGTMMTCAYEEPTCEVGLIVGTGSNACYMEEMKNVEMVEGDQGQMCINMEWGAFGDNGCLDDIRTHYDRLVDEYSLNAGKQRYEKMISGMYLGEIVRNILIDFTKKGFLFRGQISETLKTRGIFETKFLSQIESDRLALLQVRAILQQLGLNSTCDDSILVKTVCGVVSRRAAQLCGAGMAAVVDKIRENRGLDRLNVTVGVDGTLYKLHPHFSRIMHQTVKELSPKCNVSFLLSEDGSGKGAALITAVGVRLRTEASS

Hexokinase HKDC1 = target: T2, Hexokinase HKDC1 (Homo sapiens, UniProt Q2TB90); test: activation of HKDC1 glucose phosphorylation – biochemical, W721R variant, dose response (AID 504730); type: functional
T2 sequence (Q2TB90 whole entry): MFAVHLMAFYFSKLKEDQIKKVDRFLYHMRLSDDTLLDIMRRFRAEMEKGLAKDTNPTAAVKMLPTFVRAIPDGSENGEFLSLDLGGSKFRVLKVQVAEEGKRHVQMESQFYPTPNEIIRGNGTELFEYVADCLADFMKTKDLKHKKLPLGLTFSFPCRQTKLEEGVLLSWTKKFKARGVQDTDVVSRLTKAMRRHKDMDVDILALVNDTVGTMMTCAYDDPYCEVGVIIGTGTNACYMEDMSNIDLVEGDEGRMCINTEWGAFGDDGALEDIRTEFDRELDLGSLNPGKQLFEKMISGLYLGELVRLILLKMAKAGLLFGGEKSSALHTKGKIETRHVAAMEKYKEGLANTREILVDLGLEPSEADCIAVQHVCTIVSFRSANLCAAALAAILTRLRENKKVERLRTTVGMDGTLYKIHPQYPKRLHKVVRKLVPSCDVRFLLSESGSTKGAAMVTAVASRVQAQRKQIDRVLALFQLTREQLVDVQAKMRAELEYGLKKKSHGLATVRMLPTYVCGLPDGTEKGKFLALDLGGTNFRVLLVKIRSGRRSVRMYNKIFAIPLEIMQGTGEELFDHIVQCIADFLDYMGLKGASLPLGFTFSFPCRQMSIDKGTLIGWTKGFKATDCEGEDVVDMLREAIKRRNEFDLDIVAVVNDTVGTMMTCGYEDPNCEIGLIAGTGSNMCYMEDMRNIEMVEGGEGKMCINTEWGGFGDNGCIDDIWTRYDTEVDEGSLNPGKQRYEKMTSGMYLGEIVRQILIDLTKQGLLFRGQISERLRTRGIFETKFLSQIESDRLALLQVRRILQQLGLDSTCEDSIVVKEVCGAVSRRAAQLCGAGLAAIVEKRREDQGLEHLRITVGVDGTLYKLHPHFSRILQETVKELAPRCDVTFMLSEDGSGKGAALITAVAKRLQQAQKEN

[1] = target: T3, Ubiquitin-conjugating enzyme E2 N (Homo sapiens, UniProt P61088); type: functional
T3 sequence (P61088 whole entry): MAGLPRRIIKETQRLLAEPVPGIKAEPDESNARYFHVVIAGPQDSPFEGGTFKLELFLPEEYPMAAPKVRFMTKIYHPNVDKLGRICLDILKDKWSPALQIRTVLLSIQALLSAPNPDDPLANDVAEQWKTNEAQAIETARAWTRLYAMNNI

Bcl-2-related protein A1 = Bcl-2-related protein A1 (Mus musculus, UniProt Q07440); type: functional;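 further: confirmatory dose–response counterscreen on Bfl-1, used to check hits from a UBC13 polyubiquitin inhibitor campaign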
Bcl-2-related protein A1, sequence (Q07440 whole entry): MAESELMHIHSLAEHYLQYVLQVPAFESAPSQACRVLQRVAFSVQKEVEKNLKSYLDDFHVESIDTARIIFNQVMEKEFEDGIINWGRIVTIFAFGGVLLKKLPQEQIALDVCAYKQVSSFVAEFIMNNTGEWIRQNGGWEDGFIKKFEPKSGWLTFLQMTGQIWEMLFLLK

[2] = target: T3, Ubiquitin-conjugating enzyme E2 N; type: functional; remark: listed apart in the source
[3] = target: T4, G-protein coupled receptor 35 (Homo sapiens, UniProt Q9HC97); test: SAR analysis of Agonists of the GPR35 Receptor using an Image-Based Assay - Set 2. [Related pubchem assays (depositor defined):AID2013, AID2026]; type: functional
T4 sequence (Q9HC97 whole entry): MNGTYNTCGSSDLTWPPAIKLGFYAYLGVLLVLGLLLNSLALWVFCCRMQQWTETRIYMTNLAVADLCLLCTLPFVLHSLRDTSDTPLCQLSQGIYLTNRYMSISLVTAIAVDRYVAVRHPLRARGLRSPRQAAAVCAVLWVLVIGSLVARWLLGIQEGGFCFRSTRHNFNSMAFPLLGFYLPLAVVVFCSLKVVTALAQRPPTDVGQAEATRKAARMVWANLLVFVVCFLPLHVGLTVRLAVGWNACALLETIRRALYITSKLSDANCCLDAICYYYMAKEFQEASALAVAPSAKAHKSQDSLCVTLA

CAAX prenyl protease 2 = target: T5, CAAX prenyl protease 2 (Saccharomyces cerevisiae S288c, UniProt Q03530); type: biochemical
T5 sequence (Q03530 whole entry): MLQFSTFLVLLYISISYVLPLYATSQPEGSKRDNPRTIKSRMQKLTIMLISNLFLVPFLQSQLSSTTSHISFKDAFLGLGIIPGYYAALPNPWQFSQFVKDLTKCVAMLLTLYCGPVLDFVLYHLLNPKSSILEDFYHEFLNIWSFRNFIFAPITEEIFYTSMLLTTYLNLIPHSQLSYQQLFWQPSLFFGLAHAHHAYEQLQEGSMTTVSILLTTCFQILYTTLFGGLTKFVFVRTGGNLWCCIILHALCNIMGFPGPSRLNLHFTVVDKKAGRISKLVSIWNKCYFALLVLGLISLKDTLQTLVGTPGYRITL

Cannabinoid receptor 2 [4] = target: T6, Cannabinoid receptor 2 (Homo sapiens, UniProt P34972); test: SAR analysis of agonists of the Cannabinoid Receptor 2 using an Image-Based Assay. [Related pubchem assays (depositor defined):AID2013, AID2026]; type: functional
T6 sequence (P34972 whole entry): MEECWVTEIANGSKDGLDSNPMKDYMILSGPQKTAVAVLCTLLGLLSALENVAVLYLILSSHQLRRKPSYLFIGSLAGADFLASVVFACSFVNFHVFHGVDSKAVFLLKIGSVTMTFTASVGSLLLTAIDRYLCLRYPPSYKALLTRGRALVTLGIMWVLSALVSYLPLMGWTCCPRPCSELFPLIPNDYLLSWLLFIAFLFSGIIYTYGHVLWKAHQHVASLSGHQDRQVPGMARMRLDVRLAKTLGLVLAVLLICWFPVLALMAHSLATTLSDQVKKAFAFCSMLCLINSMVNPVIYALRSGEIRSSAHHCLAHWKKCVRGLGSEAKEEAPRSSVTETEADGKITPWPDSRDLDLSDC

[5] = target: T7, Small ubiquitin-related modifier 1 (Homo sapiens, UniProt P63165); test: SUMO1 protein interaction blockers, potency – biochemical, fluorescence polarization, uHTS hits, dose response (AID 624382); type: functional; conditions: read-out: IC50_Mean
T7 sequence (P63165 whole entry): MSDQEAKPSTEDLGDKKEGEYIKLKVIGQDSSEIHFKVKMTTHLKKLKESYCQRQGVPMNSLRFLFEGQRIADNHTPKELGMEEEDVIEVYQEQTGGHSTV

Cannabinoid receptor 1 [6] = target: T8, Cannabinoid receptor 1 (Homo sapiens, UniProt P21554); test: SAR analysis of agonists of the Cannabinoid Receptor 1 using an Image-Based Assay - Set 2. [Related pubchem assays (depositor defined):AID2013, AID2026]; type: functional
T8 sequence (P21554 whole entry): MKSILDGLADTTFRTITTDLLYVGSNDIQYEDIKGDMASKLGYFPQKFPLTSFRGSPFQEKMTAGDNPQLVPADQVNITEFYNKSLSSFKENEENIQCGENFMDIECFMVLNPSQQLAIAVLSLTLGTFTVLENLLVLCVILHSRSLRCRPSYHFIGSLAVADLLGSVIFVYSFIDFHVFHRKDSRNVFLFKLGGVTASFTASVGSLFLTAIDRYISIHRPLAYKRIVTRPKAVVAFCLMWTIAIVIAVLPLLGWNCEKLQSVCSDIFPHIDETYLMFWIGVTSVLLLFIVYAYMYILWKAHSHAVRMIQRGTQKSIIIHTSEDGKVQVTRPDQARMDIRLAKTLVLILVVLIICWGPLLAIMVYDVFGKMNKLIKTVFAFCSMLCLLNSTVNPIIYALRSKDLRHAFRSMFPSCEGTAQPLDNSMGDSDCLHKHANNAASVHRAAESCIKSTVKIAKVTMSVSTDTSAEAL

Cannabinoid receptor 2 [7] = target: T6, Cannabinoid receptor 2; test: SAR analysis of antagonists of the Cannabinoid Receptor 2 using an Image-Based Assay. [Related pubchem assays (depositor defined):AID2013, AID2026]; type: functional
Trypsin = Trypsin (Sus scrofa, UniProt P00761); test: trypsin protease activity blockade – biochemical, quenched peptide fluorescence, cherry-pick, selectivity assay for Rce1 protease inhibitor project, dose response (AID 488789)
Trypsin, sequence (P00761 whole entry): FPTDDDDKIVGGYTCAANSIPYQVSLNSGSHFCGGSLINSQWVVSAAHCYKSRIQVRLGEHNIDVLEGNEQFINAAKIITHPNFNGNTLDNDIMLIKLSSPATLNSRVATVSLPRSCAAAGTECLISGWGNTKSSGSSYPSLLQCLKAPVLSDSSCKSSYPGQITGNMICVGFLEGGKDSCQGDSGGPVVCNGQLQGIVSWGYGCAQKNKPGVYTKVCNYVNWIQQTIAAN

Fatty acid synthase [8] = target: T9, Fatty acid synthase (Homo sapiens, UniProt P49327); test: inhibition of human FAS-TE enzyme activity – biochemical, endpoint fluorescence intensity, uHTS hits, dose response (AID 624327); type: functional;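 further: fluorescence from hydrolysis of an O-methyl fluorescein acyl ester substrate by the enzyme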
T9 sequence (P49327 whole entry): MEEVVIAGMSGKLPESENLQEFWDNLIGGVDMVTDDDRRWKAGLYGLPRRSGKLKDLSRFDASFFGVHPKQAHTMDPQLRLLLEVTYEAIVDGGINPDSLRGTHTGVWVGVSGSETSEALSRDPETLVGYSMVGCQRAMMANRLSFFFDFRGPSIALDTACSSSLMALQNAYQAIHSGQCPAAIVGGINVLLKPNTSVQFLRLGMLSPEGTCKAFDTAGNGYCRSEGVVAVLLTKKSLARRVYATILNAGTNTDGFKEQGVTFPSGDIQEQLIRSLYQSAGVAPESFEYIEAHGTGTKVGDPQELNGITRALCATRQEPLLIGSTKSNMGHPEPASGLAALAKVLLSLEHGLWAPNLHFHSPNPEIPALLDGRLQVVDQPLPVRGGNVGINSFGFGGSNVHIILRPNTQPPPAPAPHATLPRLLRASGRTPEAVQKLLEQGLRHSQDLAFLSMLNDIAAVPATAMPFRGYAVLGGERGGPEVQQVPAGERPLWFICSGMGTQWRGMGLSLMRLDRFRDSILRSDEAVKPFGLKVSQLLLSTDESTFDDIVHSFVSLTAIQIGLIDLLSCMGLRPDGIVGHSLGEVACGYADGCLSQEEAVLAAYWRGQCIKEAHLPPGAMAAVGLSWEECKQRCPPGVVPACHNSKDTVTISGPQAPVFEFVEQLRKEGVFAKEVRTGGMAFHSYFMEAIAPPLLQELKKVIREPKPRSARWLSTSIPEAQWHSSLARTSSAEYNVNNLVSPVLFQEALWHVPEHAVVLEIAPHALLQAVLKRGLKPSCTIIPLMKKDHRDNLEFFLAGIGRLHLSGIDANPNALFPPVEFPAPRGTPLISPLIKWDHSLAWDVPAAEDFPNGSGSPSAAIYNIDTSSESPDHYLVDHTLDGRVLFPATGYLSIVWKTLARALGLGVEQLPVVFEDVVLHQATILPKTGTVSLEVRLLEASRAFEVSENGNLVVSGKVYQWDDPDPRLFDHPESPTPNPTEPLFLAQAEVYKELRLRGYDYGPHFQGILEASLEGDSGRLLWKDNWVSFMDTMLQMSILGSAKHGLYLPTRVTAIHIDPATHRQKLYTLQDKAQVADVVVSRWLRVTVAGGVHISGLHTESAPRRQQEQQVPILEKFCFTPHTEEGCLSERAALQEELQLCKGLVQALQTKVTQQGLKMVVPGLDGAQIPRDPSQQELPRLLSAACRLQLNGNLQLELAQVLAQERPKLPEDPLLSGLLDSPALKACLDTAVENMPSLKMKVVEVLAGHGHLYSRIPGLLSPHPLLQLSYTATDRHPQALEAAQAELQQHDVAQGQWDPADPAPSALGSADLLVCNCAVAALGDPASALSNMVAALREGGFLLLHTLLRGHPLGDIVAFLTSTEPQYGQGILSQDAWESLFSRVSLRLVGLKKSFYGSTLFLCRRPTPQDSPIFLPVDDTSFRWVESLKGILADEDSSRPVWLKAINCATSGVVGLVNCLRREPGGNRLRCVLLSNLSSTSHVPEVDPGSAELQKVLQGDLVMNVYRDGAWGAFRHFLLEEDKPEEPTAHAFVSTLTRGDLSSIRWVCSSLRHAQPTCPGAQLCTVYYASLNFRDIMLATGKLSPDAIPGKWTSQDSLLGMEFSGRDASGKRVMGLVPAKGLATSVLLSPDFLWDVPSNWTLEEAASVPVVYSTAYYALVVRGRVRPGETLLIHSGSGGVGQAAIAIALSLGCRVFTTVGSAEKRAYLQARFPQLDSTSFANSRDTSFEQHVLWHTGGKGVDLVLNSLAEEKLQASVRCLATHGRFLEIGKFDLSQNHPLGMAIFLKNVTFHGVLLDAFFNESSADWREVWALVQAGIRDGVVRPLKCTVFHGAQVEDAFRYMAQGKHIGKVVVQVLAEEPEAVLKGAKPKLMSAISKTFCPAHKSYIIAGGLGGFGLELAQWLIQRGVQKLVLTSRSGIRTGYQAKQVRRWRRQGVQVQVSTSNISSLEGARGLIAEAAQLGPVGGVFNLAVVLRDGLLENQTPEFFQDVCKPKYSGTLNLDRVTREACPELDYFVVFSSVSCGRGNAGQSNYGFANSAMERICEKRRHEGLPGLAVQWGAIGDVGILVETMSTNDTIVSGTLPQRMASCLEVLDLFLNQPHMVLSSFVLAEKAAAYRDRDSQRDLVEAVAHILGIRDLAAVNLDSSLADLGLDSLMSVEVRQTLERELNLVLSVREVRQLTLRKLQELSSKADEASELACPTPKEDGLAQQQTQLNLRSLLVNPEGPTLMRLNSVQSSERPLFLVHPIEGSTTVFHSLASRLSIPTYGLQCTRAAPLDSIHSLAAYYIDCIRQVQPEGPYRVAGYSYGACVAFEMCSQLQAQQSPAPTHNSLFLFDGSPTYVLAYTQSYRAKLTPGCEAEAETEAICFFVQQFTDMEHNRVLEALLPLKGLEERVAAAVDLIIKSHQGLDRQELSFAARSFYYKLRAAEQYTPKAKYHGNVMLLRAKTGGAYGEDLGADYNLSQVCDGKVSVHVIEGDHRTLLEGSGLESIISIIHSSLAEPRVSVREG

[9] = target: T10, G-protein coupled receptor 55 (Homo sapiens, UniProt Q9Y2T6); test: blockade of LPI-induced GPR55 arrestin translocation – imaging, U2OS, beta-arrestin-GFP, LPI agonist, set 2, SAR follow-up (AID 2820); type: functional
T10 sequence (Q9Y2T6 whole entry): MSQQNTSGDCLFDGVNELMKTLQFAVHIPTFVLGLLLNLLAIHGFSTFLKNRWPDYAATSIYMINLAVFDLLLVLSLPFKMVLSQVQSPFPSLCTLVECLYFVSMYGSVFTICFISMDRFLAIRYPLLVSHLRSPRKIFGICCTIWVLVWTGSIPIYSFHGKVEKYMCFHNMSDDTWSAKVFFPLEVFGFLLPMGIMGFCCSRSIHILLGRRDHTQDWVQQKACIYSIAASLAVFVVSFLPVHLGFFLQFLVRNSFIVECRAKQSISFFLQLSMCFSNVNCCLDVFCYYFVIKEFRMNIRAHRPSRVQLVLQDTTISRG

[10] = target: T7, Small ubiquitin-related modifier 1; test: SUMO1 protein-protein binding blockers, potency – biochemical, FRET, dose response (AID 624383); type: functional; conditions: read-out: IC50_Mean
Fatty acid synthase [11] = target: T9, Fatty acid synthase; test: inhibition of human FAS-TE enzyme activity – biochemical, kinetic fluorescence intensity, dose response (AID 624326); type: functional;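 further: rate of fluorescence rise from hydrolysis of a fluorogenic O-methyl fluorescein ester substrate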
[12] = target: T4, G-protein coupled receptor 35; test: SAR analysis of Antagonists of the GPR35 Receptor using an Image-Based Assay - Set 3. [Related pubchem assays (depositor defined):AID2013, AID2026]; type: functional
Cannabinoid receptor 1 [13] = target: T8, Cannabinoid receptor 1; test: SAR analysis of antagonists of the Cannabinoid Receptor 1 using an Image-Based Assay - Set 2. [Related pubchem assays (depositor defined):AID2013, AID2026]; type: functional
Streptokinase A = target: T11, Streptokinase A (Streptococcus pyogenes serotype M1, UniProt P10520); test: viability-normalized secreted streptokinase activity reduction – plasminogen activation absorbance, OD405, dose response (AID 1914); type: functional, Streptococcus pyogenes M1 GAS;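 further: secreted streptokinase activity via plasminogen activation per viability signal from cell pellet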
T11 sequence (P10520 whole entry): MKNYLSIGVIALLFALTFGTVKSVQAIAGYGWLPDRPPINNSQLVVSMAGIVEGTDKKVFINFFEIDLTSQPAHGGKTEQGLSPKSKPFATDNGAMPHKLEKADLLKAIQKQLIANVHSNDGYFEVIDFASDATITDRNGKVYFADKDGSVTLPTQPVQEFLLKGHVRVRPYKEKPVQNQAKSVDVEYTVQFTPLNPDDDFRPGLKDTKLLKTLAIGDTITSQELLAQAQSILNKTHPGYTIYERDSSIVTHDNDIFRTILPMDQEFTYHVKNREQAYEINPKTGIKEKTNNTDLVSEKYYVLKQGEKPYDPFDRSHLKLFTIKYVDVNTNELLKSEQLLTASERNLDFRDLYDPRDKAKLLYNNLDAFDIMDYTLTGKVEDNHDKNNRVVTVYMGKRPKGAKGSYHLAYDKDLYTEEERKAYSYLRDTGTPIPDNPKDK

Streptococcus = test: GAS UMAA2166 growth inhibition – luminescence, BacTiterGlo, counter-screen for streptokinase expression inhibitor project, dose response (AID 1915); type: functional, organism-based; conditions: read-out: EC50;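 further: potency for reduction of bacterial viability or growth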
[14] = target: T10, G-protein coupled receptor 55; test: inhibition of LPI-stimulated GPR55 beta-arrestin translocation – imaging, U2OS, beta-arrestin-GFP, LPI agonist, primary screen (AID 2013); type: functional;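 further: antagonist potency measured as reduced agonist-driven arrestin aggregation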
[15] = target: T4, G-protein coupled receptor 35; test: SAR analysis of Antagonists of the GPR35 Receptor using an Image-Based Assay - Set 6. [Related pubchem assays (depositor defined):AID2013, AID2026]; type: functional
[16] = target: T4, G-protein coupled receptor 35; test: SAR analysis of Agonists of the GPR35 Receptor using an Image-Based Assay - Set 4. [Related pubchem assays (depositor defined):AID2013, AID2026]; type: functional
Cannabinoid receptor 2 [17] = target: T6, Cannabinoid receptor 2; test: SAR analysis of antagonists of the Cannabinoid Receptor 2 using an Image-Based Assay - Set 3. [Related pubchem assays (depositor defined):AID2013, AID2026]; type: functional
Cannabinoid receptor 2 [18] = target: T6, Cannabinoid receptor 2; test: SAR analysis of agonists of the Cannabinoid Receptor 2 using an Image-Based Assay - Set 3. [Related pubchem assays (depositor defined):AID2013, AID2026]; type: functional
[19] = target: T10, G-protein coupled receptor 55; test: SAR Analysis of Selective Antagonists of GPR55 using an Image-Based Assay - Set 4. [Related pubchem assays (depositor defined):AID2013, AID2026]; type: functional
Cannabinoid receptor 1 [20] = target: T8, Cannabinoid receptor 1; test: SAR analysis of agonists of the Cannabinoid Receptor 1 using an Image-Based Assay - Set 4. [Related pubchem assays (depositor defined):AID2013, AID2026]; type: functional
Cannabinoid receptor 1 [21] = target: T8, Cannabinoid receptor 1; test: SAR analysis of antagonists of the Cannabinoid Receptor 1 using an Image-Based Assay - Set 4. [Related pubchem assays (depositor defined):AID2013, AID2026]; type: functional

For `O=S(=O)(NC1c2cccc3cccc(c23)C1N1CCN(CCO)CC1)c1ccccc1` (stereo not drawn), which EC50 (Hexokinase-1) is on record?
Its EC50 is 24 µM (inactive).

And the EC50 (Hexokinase HKDC1)?
Its EC50 is 18.1 µM (active).

Which IC50 [1] does the source give for `CCCCN(C(=O)c1ccco1)c1nnc(-c2cc(OC)c(OC)c(OC)c2)s1` here?
The IC50 was 10.4 µM (active).

And the IC50 (Bcl-2-related protein A1)?
Its IC50 is > 20 µM (inactive).

And the IC50 [2]?
Its IC50 is 9.79 µM (active).

Which EC50 [3] does the source give for `CC(C)(C)OC(=O)N1CCC(c2cc(O)n3ncc(C(=O)Nc4ccc(F)c(Cl)c4)c3n2)CC1` here?
The EC50 was 5.23 µM (active).

What about the AC50 (CAAX prenyl protease 2) of the same compound?
Its AC50 is 17.8 µM (active).

And the EC50 (Cannabinoid receptor 2 [4])?
Its EC50 is > 32 µM (inactive).

And the IC50 [5]?
The IC50 was > 66.6 µM (inactive).

And the EC50 (Cannabinoid receptor 1 [6])?
Its EC50 is > 32 µM (inactive).

What about the IC50 (Cannabinoid receptor 2 [7]) of the same compound?
The IC50 was > 32 µM (inactive).

What about the AC50 (Trypsin) of the same compound?
The AC50 was 77.2 µM (active).

What about the IC50 (Fatty acid synthase [8]) of the same compound?
Its IC50 is 8.24 µM (active).

And the IC50 [9]?
The IC50 was 948 nM (active).

What about the IC50 [10] of the same compound?
Its IC50 is 9.68 µM (active).

And the IC50 (Fatty acid synthase [11])?
Its IC50 is 5.64 µM (active).

What about the IC50 [12] of the same compound?
The IC50 was 25.4 µM (inactive).

And the IC50 (Cannabinoid receptor 1 [13])?
The IC50 was 10.5 µM (inactive).

What about the EC50 (Streptokinase A) of the same compound?
The EC50 was > 150 µM (not active).

What about the EC50 (Streptococcus) of the same compound?
Its EC50 is > 150 µM (not active).

And the IC50 [14]?
The IC50 was 1.41 µM (active).

`Cc1nc(N2CCN(C(=O)C3CCCO3)CC2)c2c3c(sc2n1)CCCC3` (stereo not drawn) was tested. Which IC50 [15] did it give?
Its IC50 is > 32 µM (inactive).

And the EC50 [16]?
The EC50 was > 32 µM (inactive).

What about the IC50 (Cannabinoid receptor 2 [17]) of the same compound?
Its IC50 is > 32 µM (inactive).

And the EC50 (Cannabinoid receptor 2 [18])?
Its EC50 is > 32 µM (inactive).

What about the IC50 [19] of the same compound?
Its IC50 is > 32 µM (inactive).

And the EC50 (Cannabinoid receptor 1 [20])?
The EC50 was > 32 µM (inactive).

And the IC50 (Cannabinoid receptor 1 [21])?
Its IC50 is > 32 µM (inactive).
